In patent US20190167771A1, “CONTROL ANGIOGENESIS BY REGULATING PHOSPHORYLATION OF SERYL-tRNA SYNTHETASE (SerRS)” (The Scripps Research Institute, priority 2016, published 2019):

Assays:
[1] = system: zebrafish embryos; assay: Intersegmental vessel (ISV) branching in zebrafish embryos; format: in vivo; settings: human SerRS mRNA co-injected with SerRS-MO, 3 dpf
Description: (§1) In FIG. 2A, wild type SerRS (SerRS^WT), its mutants with double substitutions of serine 101 and 241 with alanine or aspartic acid residues (SerRS^S101A/S241A and SerRS^S101D/S241D), or empty vector were transfected into HEK293 cells. The expression levels of SerRS proteins was measured by immunoblot (bottom) and VEGFA expression was determined by qRT-PCR (means±SEM from three independent experiments; ***P<0.0001). In FIGS. 2B-D, the roles of SerRS^S101A/S241A and SerRS^S101D/S241D in regulating vascular development in vivo in zebrafish were examined by co-injection of SerRS^S101A/S241A and SerRS^S101D/S241D mRNAs into one-cell-stage embryos whose endogenous SerRS was knocked down by injection of antisense morpholino (SerRS-MO) that led to abnormal high expression of Vegfa and hypervascularization (shown by short bold arrows in FIG. 2C). At 3 day post fertilization (dpf), embryos were harvested and Vegfa expression levels were measured by qRT-PCR (means±SEM, n=125-211; *P<0.01, **P<0.001) (B). The development of intersegmental vessel (ISV) at 3 dpf was examined (C) and the statistics of ISV abnormal branching rescued by SerRS^WT or mutant SerRS mRNA injections was analyzed (D; χ^2-test,* P>0.05 vs SerRS^WT, **P>0.1 vs SerRS-MO, ***P<1×10^−28 vs control-MO). In FIG. 2E, the binding affinities of SerRS^WT or SerRS^S101D/S241D with ^32P labeled DNA fragments corresponding to SerRS binding site on human VEGFA promoter were examined by EMSA. In FIG. 2F, the binding of SerRS^WT, SerRS^S101A/S241A, or SerRS^S101D/S241D on VEGFA promoter in HEK293 cells was examined by chromatin immunoprecipitation (ChIP) and qPCR (means±SEM from two independent experiments; ***P<0.0001). In FIG. 2G, the binding of endogenous SerRS on VEGFA promoter during hypoxia course was monitored by ChIP (means±SEM from three independent experiments; *P<0.05, **P<0.005 vs normal).
Transgenic Tg (Fli1a: EGFP) fish were maintained as we described before (Ref). The fish embryos were kept at 28.5° C. before and after microinjection. The antisense morpholino (MOs) targeting SerRS was injected into the yolk of 1-cell stage embryos at the dosage of 4˜5 ng per embryo. The sequence of SerRS-MO is (Ref). The SerRS-MO (5′ AGGAGAATGTGAACAAACCTGACAC 3′ (SEQ ID NO: 34)) and standard control MO (5′ CCTCTTACCTCAGTTACAATTTATA 3′ (SEQ ID NO: 35)) were purchased from Gene Tools, LLC (Philomath, Oreg. USA). After injection, embryos were incubated in E3 embryo medium supplemented with 0.003% 1-phenyl-2-thiourea (PTU) at 28.5° C. to prevent pigment formation. […] The rescue effects of different SerRS mutants on ISV development were analyzed with χ^2 test. […]

[2] = system: Vegfa; assay: Vegfa mRNA by qRT-PCR in zebrafish embryos with SerRS knockdown and mRNA co-injection; format: in vivo; settings: human SerRS mRNA co-injected with SerRS-MO, 3 dpf
Description: as §1
Total RNA was isolated from cells and zebrafish embryos by TRIzol Reagent (ThermoFisher Scientific). […] of the total RNA from each sample was reversely transcribed to cDNA by M-MLV reverse transcriptase (Promega, Madison, Wis., USA). All real-time PCR reactions were performed using the StepOnePlus Real-Time PCR system (ThermoFisher Scientific) with SYBR Select Master Mix ThermoFisher Scientific). […]

[3] = system: VEGFA; assay: VEGFA mRNA induction by 12-hour hypoxia in HEK293 cells (qRT-PCR); format: cell-based, human; settings: hypoxia 12 hours
Description: In FIG. 3B, HEK293 cells were transiently transfected with SerRS^WT or SerRS^S101A/S241A constructs or empty control vector. 24 hours post-transfection, VEGFA mRNA induction by 12-hour-hypoxia treatment was monitored by qRT-PCR (means±SEM from four independent experiments; *P<0.05, **P<0.01, ***P<0.005). In FIG. 3C, HEK293 cells were transiently transfected with indicated constructs. 36 hours post-transfection, VEGFA mRNA induction by 12-hour-hypoxia treatment was monitored by qRT-PCR (means±SEM from four independent experiments; *P<0.0, **P<0.001, ***P<0.0001). The protein levels of SerRS, HIF-1α, and β-actin were examined by western blot (bottom).
Transient transfections were performed using Lipofectamine 2000 (ThermoFisher Scientific).
One gram of the total RNA from each sample was reversely transcribed to cDNA by M-MLV reverse transcriptase (Promega, Madison, Wis., USA). All real-time PCR reactions were performed using the StepOnePlus Real-Time PCR system (ThermoFisher Scientific) with SYBR Select Master Mix ThermoFisher Scientific). […] The PCR reaction program started at 95° C. for 10 min, followed by 45 cycles of 95° C. for 20 seconds and 60° C. for 1 min. Each experiment was carried out in triplicate. The VEGFA gene expression was normalized to that of β-ACTIN. Statistical analyses were performed with the software SigmaPlot (version 10.0). Student's t-test was used to analyze the changes between different groups.

[4] = overexpression of SerRS construct, 24 hours post-transfection

Row | Substance | zebrafish embryos with abnormal hyper-ISV branching phenotype [1] | rescue of Vegfa mRNA increase caused by SerRS-MO [2] | VEGFA induction under hypoxia ([3]; SerRS construct expressed while HIF is knocked down by shRNA (shHIF)) | VEGFA induction under hypoxia [3, 4]
1 | SerRS^S101A/S241A: phosphorylation-deficient human SerRS double mutant, serine 101 and 241 to alanine, SEQ ID NO: 4 (mouse version in matrigel assay) | 26.4% | rescued or largely rescued | completely inhibited VEGFA induction | significantly suppressed VEGFA induction
2 | SerRS^S101D/S241D: SerRS with double substitutions of S101 and S241 with aspartic acid, mimics the phosphorylated SerRS | 62.7% | no rescue effect at all | – | –
3 | SerRS^WT: wildtype human seryl-tRNA synthetase protein, SEQ ID NO: 1 (mouse wild type used in the 3B11 matrigel assay) | 17.9% | rescued or largely rescued | – | had no effect
